Data: patent US20160331754A1, “THERAPIES FOR TREATING CANCERS” (GILEAD SCIENCES, INC., priority 2014, published 2016)
Values joined by “and” are separate entries in the source; they are usually repeats but may differ in a detail not shown here. Equal entries are not always repeated.

Assays:
[1] = test system: p-AKT Ser473; experiment: Flow cytometry, TPO-activated AKT phosphorylation in CD34+ progenitor cells from MF patients; type: cell-based, human; conditions: for p-AKT (table title: percentage of Annexin-V positive cells): cells from Compound A-treated MF patients; for normalized percentage of TPO-activated AKT phosphorylation (p-AKT): TPO-treated vehicle=100
Procedure: (§1) PBMCs were isolated from whole blood of myelofibrosis (MF) patients who had not received treatments (i.e. naïve patients) or received ruxolitinib (i.e. rux-treated patients). The cells were treated with 0.02, 0.2, or 2.0 μM of Compound B or vehicle (0.1% DMSO in 0.1% FBS/RPMI) for 2 hours at 37° C. The cells were then fixed, permeabilized, and stained for FACS analysis. Antibodies specific to p-AKT Ser473 and pS6RP Ser235/236 were used to detect AKT phosphorylation (p-AKT) and S6RP phosphorylation (p-S6RP) in CD34^+/CD3^−/CD14^−/CD19/CD66^− (BD Biosciences) gated cells using flow cytometry. The percentage of basal (i.e. untreated with TPO) AKT and S6RP phosphorylation were normalized to vehicle control. A two-tailed paired t-test (GraphPad Prism) was used to calculate p-values. Values of p<0.05 were considered significant.
(§2) Also, PBMC cells from naïve or ruxolitinib treated patients were isolated and treated with Compound B and with TPO as described above. The percentage of TPO-activated AKT and S6RP phosphorylation were normalized to those of TPO-treated vehicle (“no TPO” values in Table 4). […] Also, the inhibition to PI3K signaling was dose-dependent to Compound B.
(§3) Similar studies were conducted with PI3K inhibitors Compounds C and D. PBMC from MF patients had received ruxolitinib (rux) and MF patient had received Compound A. The cells were treated with Compounds C or D at 0, 20.0, 200.0, 2000.0 nM for 2 hours at 37° C. Cells were treated with TPO for 10 minutes. The percentage of basal p-AKT and p-S6RP levels were normalized to vehicle control and those of TPO-treated were normalized to TPO-treated vehicle control. The PI3Kδ inhibitors Compound C is referred by the chemical names of (S)-2-(1-((9H-purin-6-yl)amino)ethyl)-6-fluoro-3-phenylquinazolin-4(3H)-one.

[2] = test system: pS6RP Ser235/236; experiment: Flow cytometry, TPO-activated S6RP phosphorylation in CD34+ progenitor cells from MF patients; type: cell-based, human; conditions: for p-S6RP (table title: percentage of Annexin-V positive cells): cells from Compound A-treated MF patients; for normalized percentage of TPO-activated S6RP phosphorylation (p-S6RP): TPO-treated vehicle=100
Procedure: as §1, §2, §3

[3] = 0.02 μM, rux-treated MF patients
[4] = 0.2 μM, rux-treated MF patients

SMILES: CC[C@H](Nc1ncnc2[nH]cnc12)c1nc2cccc(F)c2c(=O)n1-c1ccccc1 [Compound B, (S)-2-(1-((9H-purin-6-yl)amino)propyl)-5-fluoro-3-phenylquinazolin-4(3H)-one]
- p-AKT (table title: percentage of Annexin-V positive cells) ([1]; 0.02 μM, column 0 = 100): 56% and 74% and 51%
- normalized percentage of TPO-activated AKT phosphorylation (p-AKT) ([1]; 0.02 μM, naïve MF patients, one line per patient): 43% and 60% and 58%
- normalized percentage of TPO-activated AKT phosphorylation (p-AKT) [1, 3]: 59% and 60% and 78% and 55% and 57%
- p-AKT (table title: percentage of Annexin-V positive cells) ([1]; 0.2 μM): 49% and 71% and 51%
- normalized percentage of TPO-activated AKT phosphorylation (p-AKT) ([1]; 0.2 μM, naïve MF patients): 30% and 32% and 41%
- normalized percentage of TPO-activated AKT phosphorylation (p-AKT) [1, 4]: 39% and 52% and 55% and 57% and 36% and 33%
- normalized percentage of TPO-activated AKT phosphorylation (p-AKT) ([1]; 2.0 μM, naïve MF patients): 28% and 32% and 27%
- p-S6RP (table title: percentage of Annexin-V positive cells) ([2]; 0.02 μM): 61% and 69% and 64%
- normalized percentage of TPO-activated S6RP phosphorylation (p-S6RP) ([2]; 0.02 μM, naïve MF patients): 57% and 50% and 86%
- normalized percentage of TPO-activated S6RP phosphorylation (p-S6RP) [2, 3]: 55% and 79% and 60% and 59% and 53% and 62%
- p-S6RP (table title: percentage of Annexin-V positive cells) ([2]; 0.2 μM): 52% and 54% and 42%
- normalized percentage of TPO-activated S6RP phosphorylation (p-S6RP) ([2]; 0.2 μM, naïve MF patients): 48% and 42% and 69%
- normalized percentage of TPO-activated S6RP phosphorylation (p-S6RP) [2, 4]: 35% and 56% and 55% and 50% and 32% and 44%
- p-S6RP (table title: percentage of Annexin-V positive cells) ([2]; 2.0 μM): 30% and 34% and 25%
